Where a name gives a salt, the structure may show the parent alone. Read-outs that look alike come from different tables or passages of the source.
What was measured:
[1] = molecular target: T1, SARS-CoV-2 PLpro (nsp3 1564–1878) (Severe acute respiratory syndrome coronavirus 2, UniProt P0DTD1); assay: biochemical; design: FRET-quenched peptide (Pro3) cleavage by PLpro, 10 min pre-incubation, slope over 20 min, normalised to no-compound control; conditions: low concentration screen, read-out: % of control remaining
[2] = molecular target: T1, SARS-CoV-2 PLpro (nsp3 1564–1878); assay: biochemical; design: FRET-quenched peptide (Pro3) cleavage by PLpro, 10 min pre-incubation, slope over 20 min, normalised to no-compound control; conditions: high concentration screen, read-out: % of control remaining

## CN(C)c1ccc(O)c2c1C[C@H]1C[C@H]3[C@H](N(C)C)C(O)=C(C(N)=O)C(=O)[C@@]3(O)C(O)=C1C2=O
[1]; Well no.=3663
  remaining activity at 1.25 µM: 102%

## CN1[C@@H]2CC[C@H]1C[C@@H](OC(=O)C(CO)c1ccccc1)C2 (stereo partly shown) [Atropine]
[1]; Well no.=1552
  remaining activity at 1.25 µM: 100%

## O=c1cc(-c2cccc3c2Sc2ccccc2S3)oc(N2CCOCC2)c1 [ATM Kinase Inhibitor]
[2]; Well no.=2310
  remaining activity at 3.75 µM: 104%

## COc1cc(Nc2ncc3c(n2)-c2ccc(Cl)cc2C(c2c(F)cccc2OC)=NC3)ccc1C(=O)O [MLN8237 (Alisertib)]
[2]; Well no.=4675
  remaining activity at 3.75 µM: 104%

## Oc1cc2c(cc1O)C(c1ccccc1)CNCC2 (stereo not shown) [SKF 38393 (hydrochloride)]
[2]; Well no.=7231
  remaining activity at 3.75 µM: 97.8%

## CN1C[C@@H](NS(=O)(=O)N(C)C)C[C@@H]2c3cccc4c3c(cn4C)C[C@H]21 [Mesulergine]
[2]; Well no.=1692
  remaining activity at 3.75 µM: 106%

## CC(C)NCC(O)c1ccc(O)c(O)c1 (racemic)
[1]; Well no.=1107
  remaining activity at 1.25 µM: 97.8%

## C[N+](C)(C)[C@@H](Cc1c[nH]c(=S)[nH]1)C(=O)[O-] [L-Ergothioneine]
[2]; Well no.=3891
  remaining activity at 3.75 µM: 100%

## CC(C)[N+]1(C)[C@@H]2CC[C@H]1C[C@@H](OC(=O)C(CO)c1ccccc1)C2 (stereo partly shown) [Ipratropium (bromide)]
[1]; Well no.=6175
  remaining activity at 1.25 µM: 100%

## O=C(c1ccc(Nc2nccc(-c3cc4ccccc4s3)n2)cc1)N1CCC(N2CCCC2)CC1 [IKK Inhibitor VII]
[1]; Well no.=2439
  remaining activity at 1.25 µM: 103%

## CC(C)(O)c1ccccc1CC[C@@H](SCC1(CC(=O)O)CC1)c1cccc(/C=C/c2ccc3ccc(Cl)cc3n2)c1 [Montelukast]
[2]; Well no.=1615
  remaining activity at 3.75 µM: 101%

## O=C(Nc1cccc2c(=O)cc(-c3nnn[nH]3)oc12)c1ccc(OCCCCc2ccccc2)cc1 [Pranlukast (hemihydrate)]
[2]; Well no.=6603
  remaining activity at 3.75 µM: 102%

## O=c1[nH]c2ccccc2n1CCN1CCN(c2cccc(C(F)(F)F)c2)CC1 [Flibanserin]
[1]; Well no.=6855
  remaining activity at 1.25 µM: 102%

## Cc1cc2c(cc1Cl)N(C(=O)Nc1ccc(Oc3cccnc3C)nc1)CC2 [SB 242084]
[1]; Well no.=7137
  remaining activity at 1.25 µM: 103%

## CN(C)CCCN1c2ccccc2Sc2ccc(C(F)(F)F)cc21 [Triflupromazine hydrochloride]
[2]; Well no.=1285
  remaining activity at 3.75 µM: 105%

## O=C1CC2(CCCC2)CC(=O)N1CCCCN1CCN(c2ncccn2)CC1 [Buspirone]
[2]; Well no.=2179
  remaining activity at 3.75 µM: 105%

## Nc1[nH]nc2nc3ccccc3nc12 [NSC 693868 - 1H-Pyrazolo[3,4-b]quinoxalin-3-amine]
[1]; Well no.=2476
  remaining activity at 1.25 µM: 95.5%

## CC/C(=C(/CC)c1ccc(O)cc1)c1ccc(O)cc1 [Diethylstilbestrol]
[2]; Well no.=1982
  remaining activity at 3.75 µM: 98.4%

## CCN(CC)CCCC(C)Nc1nc(C)cc(Nc2ccc3nc(C)cc(N)c3c2)n1 (stereo not shown) [NSC 23766 (trihydrochloride)]
[1]; Well no.=7865
  remaining activity at 1.25 µM: 98.1%

## Cc1nccn1CC1CCc2c(c3ccccc3n2C)C1=O (stereo not shown) [Ondansetron (hydrochloride dihydrate)]
[2]; Well no.=7521
  remaining activity at 3.75 µM: 105%

## CN(C)CC/C=C1/c2ccccc2COc2ccc(CC(=O)O)cc21 [Olopatadine]
[2]; Well no.=1786
  remaining activity at 3.75 µM: 103%

## Cc1cccc2c3c(ccc12)C1=C(C(=O)C3=O)C(C)CO1 (stereo not shown) [Dihydrotanshinone]
[1]; Well no.=3569
  remaining activity at 1.25 µM: 102%

## CCCCCCCCCCCCCCCC(=O)NCCO [Palmitoylethanolamide]
[2]; Well no.=900
  remaining activity at 3.75 µM: 106%

## Cc1cc(C(C)(C)C)c(O)c(C)c1CC1=NCCN1 [Oxymetazoline.HCl]
[2]; Well no.=1683
  remaining activity at 3.75 µM: 105%

## CC1(C)C(=O)N(CCN2CCC(C(=O)c3ccc(F)cc3)CC2)c2ccccc21 [LY-310,762 hydrochloride]
[1]; Well no.=833
  remaining activity at 1.25 µM: 99.6%

## C1COC(NC(C2CC2)C2CC2)=N1 [Rilmenidine phosphate]
[2]; Well no.=1695
  remaining activity at 3.75 µM: 106%

## CN1CCN(C2Cc3ccccc3Sc3ccc(Cl)cc32)CC1 (stereo not shown) [Octoclothepin maleate salt]
[2]; Well no.=5506
  remaining activity at 3.75 µM: 108%

## CC(CN1c2ccccc2Sc2ccccc21)N(C)C (stereo not shown) [Promethazine (hydrochloride)]
[1]; Well no.=6811
  remaining activity at 1.25 µM: 99.3%

## CN(C)CCCN1c2ccccc2Sc2ccccc21 [Promazine (hydrochloride)]
[1]; Well no.=6711
  remaining activity at 1.25 µM: 103%

## CN1[C@@H](CC(=O)c2ccccc2)CCC[C@H]1C[C@H](O)c1ccccc1 [Lobeline]
[2]; Well no.=1663
  remaining activity at 3.75 µM: 103%

## Cc1ccc(OC[C@H](O)[C@@H](C)NC(C)C)c2c1CCC2 [ICI 118,551 (hydrochloride)]
[1]; Well no.=7035
  remaining activity at 1.25 µM: 106%

## CCC(COC(=O)c1cc(OC)c(OC)c(OC)c1)(c1ccccc1)N(C)C (stereo not shown) [Trimebutine (maleate)]
[2]; Well no.=6655
  remaining activity at 3.75 µM: 107%

## Cc1cccc(C)c1NC1=NCCCS1 [Xylazine hydrochloride]
[2]; Well no.=1388
  remaining activity at 3.75 µM: 98.8%

## COc1ccc([C@@H]2Sc3ccccc3N(CCN(C)C)C(=O)[C@@H]2OC(C)=O)cc1 [Diltiazem hydrochloride]
[2]; Well no.=399
  remaining activity at 3.75 µM: 103%

## Nc1c2c(nc3ccccc13)CCCC2 [Tacrine]
[2]; Well no.=1675
  remaining activity at 3.75 µM: 105%

## CCCCC[C@H](O)/C=C/[C@@H]1[C@@H](C/C=C\CCCC(=O)O)[C@@H](O)C[C@H]1O [Prostaglandin F2a]
[1]; Well no.=3094
  remaining activity at 1.25 µM: 107%

## COc1cc2ncnc(Nc3ccc(F)c(Cl)c3)c2cc1OCCCN1CCOCC1 [Iressa - N-(3-chloro-4-fluoro-phenyl)-7-methoxy-6-(3-morpholin-4-ylpropoxy)quinazolin-4-amine]
[1]; Well no.=2670
  remaining activity at 1.25 µM: 97.6%

## CC(C(=O)O)c1cccc(C(=O)c2ccccc2)c1 (stereo not shown) [Ketoprofen]
[2]; Well no.=973
  remaining activity at 3.75 µM: 101%
[2]; Well no.=1576
  remaining activity at 3.75 µM: 98.4%

## CN1C[C@@H]2c3ccccc3Oc3ccc(Cl)cc3[C@H]2C1 (racemic) [Asenapine]
[2]; Well no.=5151
  remaining activity at 3.75 µM: 105%

## Cc1noc(-c2ccc(-c3ccc(CC(=O)O)cc3)cc2)c1NC(=O)O[C@H](C)c1ccccc1 [AM095 (free acid)]
[2]; Well no.=7853
  remaining activity at 3.75 µM: 101%

## CNCC[C@H](Oc1ccc(C(F)(F)F)cc1)c1ccccc1 [S-(+)-Fluoxetine hydrochloride]
[2]; Well no.=753
  remaining activity at 3.75 µM: 99.7%

## CC(N)(C(=O)O)c1ccc(C(=O)O)cc1 (racemic)
[2]; Well no.=880
  remaining activity at 3.75 µM: 111%

## O=C(CCCN1CCC2(CC1)C(=O)NCN2c1ccccc1)c1ccc(F)cc1 [Spiperone.HCl]
[2]; Well no.=1648
  remaining activity at 3.75 µM: 106%

## Cc1ccc(C(=O)Nc2ccc(S(=O)(=O)O)c3cc(S(=O)(=O)O)cc(S(=O)(=O)O)c23)cc1NC(=O)c1cccc(NC(=O)Nc2cccc(C(=O)Nc3cc(C(=O)Nc4ccc(S(=O)(=O)O)c5cc(S(=O)(=O)O)cc(S(=O)(=O)O)c45)ccc3C)c2)c1 [Suramin hexasodium]
[2]; Well no.=1469
  remaining activity at 3.75 µM: 102%

## CN(C)CCCN1c2ccccc2CCc2ccccc21 [Imipramine.HCl]
[2]; Well no.=1688
  remaining activity at 3.75 µM: 102%

## Oc1cc2c(cc1O)C(c1ccccc1)CNCC2 (racemic)
[2]; Well no.=542
  remaining activity at 3.75 µM: 98.7%

## O=C(CCN1CCN(C(=O)OCc2cc(Cl)cc(Cl)c2)CC1)c1ccc2[nH]c(=O)oc2c1 [3,5-dichlorobenzyl 4-[3-oxo-3-(2-oxo-2,3-dihydro-1,3-benzoxazol-6-yl)propyl]-1-piperazinecarboxylate]
[2]; Well no.=5605
  remaining activity at 3.75 µM: 105%

## CCCC(=O)Nc1ccc(OCC(O)CNC(C)C)c(C(C)=O)c1 (stereo not shown) [Acebutolol HCl]
[2]; Well no.=5074
  remaining activity at 3.75 µM: 103%

## S=C(S)O[C@@H]1C[C@@H]2C[C@@H]1[C@H]1CCC[C@@H]21 [D609]
[2]; Well no.=4133
  remaining activity at 3.75 µM: 100%

## COC(=O)[C@H]1[C@H]2C[C@H]3c4[nH]c5ccccc5c4CCN3C[C@H]2CC[C@@H]1O [Rauwolscine (hydrochloride)]
[2]; Well no.=8155
  remaining activity at 3.75 µM: 99.9%

## COc1ccc(Cl)cc1NC(=O)Nc1cc(C)nc2ccccc12 [IGF-1R Inhibitor II]
[2]; Well no.=2451
  remaining activity at 3.75 µM: 104%

From publication PMC8286840, “Identifying SARS-CoV-2 antiviral compounds by screening for small molecule inhibitors of Nsp3 papain-like protease” (Biochemical Journal, 2021)
